Laboratory results reported in patent US4130648A, “5-Fluorouracil derivatives and antitumor preparations containing the same” (Eisai Co., Ltd., priority 1976, dated 1978).
Read-outs that look alike come from different tables or passages of the source.

Legend:
Sarcoma-180 (S-180) [1] = assay: Effect on growth of solid tumor by oral administration, S-180; format: in vivo, mice (ICR/JCL, female); conditions: for Tumor growth (weight : T/C %): 3 hours after implantation, 20 days after; for minimal effective dose: Mus musculus, 480 h, read-out: minimum effective dose
Method: (3) Effect on growth of solid tumor by oral administration
1.8 × 10^6 cells of S-180 were implanted subcutaneously in ICR/JCL mice (female, 6-8 weeks old).
Each of the drugs was orally administered as a solution of safflower oil 3 hours after the implantation.
Safflower oil was administered as control for each of the drugs.
Twenty days after, the tumor weight was measured, and the ratio of the tumor weight to that of the control group (T/C %) was calculated.

L-1210 leukemia [2] = assay: Survival effect, L-1210 leukemia; format: in vivo, mice (CDF1, female); conditions: for ILS % over controls / Mean survival days: 24 hours after implantation
Method: 3. Antitumor activity on L-1210 leukemia
10^5 cells of L-1210 leukemia were intraperitoneally implanted in CDF1 mice (female, 8-10 weeks old). […]
MCT was administered as control for Compound A.
Mean survival time after the implantation was determined, and the increase in life-span (ILS) over controls was calculated.

L-1210 leukemia [3] = assay: Duration of antitumor activity, L-1210 leukemia; format: in vivo, mice (CDF1, female)
Excerpt: (2) Duration of antitumor activity
10^5 cells of L-1210 leukemia were intraperitoneally implanted in the mice.
Survival days after the implantation were counted.

[4] = clinical background; cited from earlier work
[5] = Acute toxicity, LD50 after three weeks observation; format: in vivo, mice (CDF1, female); conditions: mouse, in vivo, CDF1 mice, three weeks observation
Excerpt: (§1) LD50 (mg/Kg) after three weeks observation in CDF1 mice (female, 8-10 weeks old)

Sarcoma-180 (S-180) [6] = assay: Inhibitory effect on the growth of S-180 ascites form (TPCV); format: in vivo, mice (ICR/JCL, female); conditions: for Tumor growth (TPCV : T/C %): i.p., 24 hours after implantation, day 10; for ED50: Mus musculus, ip, 240 h; for ED50 / safety index (LD50 /ED50): S-180 ascites form, from Tables 1 and 2
Method: 2. Antitumor activity against Sarcoma-180 (S-180)
(1) Inhibitory effect on the growth of S-180 ascites form (Intraperitoneal administration)
10^6 cells of S-180 were intraperitoneally implanted in ICR/JCL mice (female, 8-10 weeks old).
Compound A was administered as a solution of soybean oil and 5-FU was administered as saline solution, at 24 hours after the implantation.
Soybean oil was administered as control for the Compound A. Saline solution was administered as control for 5-FU.
Ten days after the implantation of the tumor cells, the total packed cell volumes (TPCV) were measured. The measurement of TPCV was carried out in accordance with Hoshi, A. et al., Chemical & Pharmaceutical Bulletion 17 (4), 848-850 (1969). The results are shown in Table 2, wherein T/C % means the ratio of the TPCV of the test groups to that of the control group.

Sarcoma-180 (S-180) [7] = assay: Survival effect, S-180; format: in vivo, mice (ICR/JCL, female); conditions: for ILS (%) over control / Mean survival days: 24 hours after implantation
Method: 10^6 cells of S-180 were intraperitoneally implanted in ICR/JCL mouse (female, 6-8 weeks old).
Compound A was administered as a solution of soybean oil at 24 hours after the implantation.
Soybean oil was administered as control for Compound A.
Survival days after implantation was measured. The increase in life-span over control groups (ILS = T/C % - 100) was calculated.

CDF1 mice = assay: Acute toxicity, LD50 after three weeks observation; format: in vivo, female); conditions: from Table 1, compared with FT-207 and 5-FU
Excerpt: as §1

[8] = ip, intraperitoneal administration
[9] = sc, subcutaneous administration

O=c1[nH]c(=O)n(C2CCCO2)cc1F (stereo not drawn) [FT-207, reference compound]
Tumor growth (weight : T/C %) (Sarcoma-180 (S-180) [1]; 25 mg/Kg oral): 148%
Tumor growth (weight : T/C %) (Sarcoma-180 (S-180) [1]; 50 mg/Kg oral): 269%
Tumor growth (weight : T/C %) (Sarcoma-180 (S-180) [1]; 100 mg/Kg oral): 58%
Tumor growth (weight : T/C %) (Sarcoma-180 (S-180) [1]; 200 mg/Kg oral): 43%
Tumor growth (weight : T/C %) (Sarcoma-180 (S-180) [1]; 400 mg/Kg oral): 34%
minimal effective dose (Sarcoma-180 (S-180) [1]; oral, S-180 solid tumor, from Table 4): ~100 mg/kg
ILS % over controls (L-1210 leukemia [2]; 50 mg/Kg i.p. in saline): 0%
Mean survival days (L-1210 leukemia [2]; 50 mg/Kg i.p. in saline): 7.0 days
ILS % over controls (L-1210 leukemia [2]; 200 mg/Kg i.p. in saline): 1%
Mean survival days (L-1210 leukemia [2]; 200 mg/Kg i.p. in saline): 7.1 days
effectiveness (L-1210 leukemia [2]; dose of about 1/4 LD50): it cannot be confirmed that FT-207 is effective
Mean survival days (L-1210 leukemia [3]; 200 mg/Kg i.p. in saline, 1 day before tumor implantation): 8.8 days
Mean survival days (L-1210 leukemia [3]; 200 mg/Kg i.p. in saline, 2 days before tumor implantation): 9.0 days
Mean survival days (L-1210 leukemia [3]; 200 mg/Kg i.p. in saline, 4 days before tumor implantation): 9.0 days

O=c1[nH]cc(F)c(=O)[nH]1 [Example 5-FU, 5-fluorouracil]
Tumor growth (weight : T/C %) (Sarcoma-180 (S-180) [1]; 10 mg/Kg oral): 156%
Tumor growth (weight : T/C %) (Sarcoma-180 (S-180) [1]; 20 mg/Kg oral): 55%
Tumor growth (weight : T/C %) (Sarcoma-180 (S-180) [1]; 40 mg/Kg oral): 52%
Tumor growth (weight : T/C %) (Sarcoma-180 (S-180) [1]; 80 mg/Kg oral): 63%
minimal effective dose (Sarcoma-180 (S-180) [1]; S-180, po): ~20 mg/kg
ratio of the minimum effective dose to toxic dose (LD50) (Sarcoma-180 (S-180) [1]; oral, S-180 solid tumor): about 1/6
toxicity at the effective dosage [4]: relatively severe toxicity
LD50 at 504 h [5, 8]: 150 mg/kg
LD50 at 504 h [5, 9]: 175 mg/kg
LD50 at 504 h ([5]; intravenous administration): 135 mg/kg
LD50 at 504 h ([5]; oral administration): 120 mg/kg
ILS % over controls (L-1210 leukemia [2]; 15 mg/Kg i.p. in saline): 15%
Mean survival days (L-1210 leukemia [2]; 15 mg/Kg i.p. in saline): 8.1 days
ILS % over controls (L-1210 leukemia [2]; 30 mg/Kg i.p. in saline): 25%
Mean survival days (L-1210 leukemia [2]; 30 mg/Kg i.p. in saline): 8.8 days
ILS % over controls (L-1210 leukemia [2]; 60 mg/Kg i.p. in saline): 38%
Mean survival days (L-1210 leukemia [2]; 60 mg/Kg i.p. in saline): 9.7 days
Mean survival days (L-1210 leukemia [3]; 50 mg/Kg i.p. in saline, 1 day before tumor implantation): 9.0 days
Mean survival days (L-1210 leukemia [3]; 50 mg/Kg i.p. in saline, 2 days before tumor implantation): 9.0 days
Mean survival days (L-1210 leukemia [3]; 50 mg/Kg i.p. in saline, 4 days before tumor implantation): 8.8 days
Tumor growth (TPCV : T/C %) (Sarcoma-180 (S-180) [6]; 34 mg/Kg): 43.3%
Tumor growth (TPCV : T/C %) (Sarcoma-180 (S-180) [6]; 68 mg/Kg): 26.4%
Tumor growth (TPCV : T/C %) (Sarcoma-180 (S-180) [6]; 125 mg/Kg): 4.3%
Tumor growth (TPCV : T/C %) (Sarcoma-180 (S-180) [6]; 250 mg/Kg): died
Tumor growth (TPCV : T/C %) (Sarcoma-180 (S-180) [6]; 500 mg/Kg): died
ED50 (Sarcoma-180 (S-180) [6]): ~25 mg/kg
safety index (LD50 /ED50) (Sarcoma-180 (S-180) [6]): about 5

Cc1c(C)c2c(c(C)c1OC(=O)n1cc(F)c(=O)[nH]c1=O)CCC(C)(CCCC(C)CCCC(C)CCCC(C)C)O2 (racemic) [Compound A, N1-d,l-α-tocopheryl carbonyl-5-fluorouracil]
Tumor growth (weight : T/C %) (Sarcoma-180 (S-180) [1]; 62 mg/Kg oral): 106%
Tumor growth (weight : T/C %) (Sarcoma-180 (S-180) [1]; 125 mg/Kg oral): 87%
Tumor growth (weight : T/C %) (Sarcoma-180 (S-180) [1]; 250 mg/Kg oral): 33%
Tumor growth (weight : T/C %) (Sarcoma-180 (S-180) [1]; 500 mg/Kg oral): 47%
Tumor growth (weight : T/C %) (Sarcoma-180 (S-180) [1]; 1000 mg/Kg oral): 38%
Tumor growth (weight : T/C %) (Sarcoma-180 (S-180) [1]; 2000 mg/Kg oral): 36%
minimal effective dose (Sarcoma-180 (S-180) [1]; S-180, po): ~250 mg/kg
availability (Sarcoma-180 (S-180) [1]; compared with FT-207 and 5-FU): higher than those of the other two drugs
ratio of the minimum effective dose to toxic dose (LD50) (Sarcoma-180 (S-180) [1]; oral, S-180 solid tumor): less than 1/16
ILS (%) over control (Sarcoma-180 (S-180) [7]; 500 mg/Kg): 139.1%
Mean survival days (Sarcoma-180 (S-180) [7]; 500 mg/Kg): 33.0 days
ILS (%) over control (Sarcoma-180 (S-180) [7]; 1000 mg/Kg): 215.2%
Mean survival days (Sarcoma-180 (S-180) [7]; 1000 mg/Kg): 43.5 days
ILS (%) over control (Sarcoma-180 (S-180) [7]; 2000 mg/Kg): 160.9%
Mean survival days (Sarcoma-180 (S-180) [7]; 2000 mg/Kg): 36.0 days
ILS (%) over control (Sarcoma-180 (S-180) [7]; 4000 mg/Kg): 182.6%
Mean survival days (Sarcoma-180 (S-180) [7]; 4000 mg/Kg): 39.0 days
survival effect (Sarcoma-180 (S-180) [7]; single administration of 1/8 LD50): marked effect
acute toxicity (CDF1 mice): lower acute toxicity than FT-207 and 5-FU
LD50 at 504 h [5, 8]: > 4000 mg/kg
LD50 at 504 h [5, 9]: > 4000 mg/kg
LD50 at 504 h ([5]; oral administration): > 4000 mg/kg
ILS % over controls (L-1210 leukemia [2]; 125 mg/Kg i.p. in MCT): 0%
Mean survival days (L-1210 leukemia [2]; 125 mg/Kg i.p. in MCT): 7.0 days
ILS % over controls (L-1210 leukemia [2]; 250 mg/Kg i.p. in MCT): 14%
Mean survival days (L-1210 leukemia [2]; 250 mg/Kg i.p. in MCT): 8.0 days
ILS % over controls (L-1210 leukemia [2]; 500 mg/Kg i.p. in MCT): 40%
Mean survival days (L-1210 leukemia [2]; 500 mg/Kg i.p. in MCT): 9.8 days
ILS % over controls (L-1210 leukemia [2]; 1000 mg/Kg i.p. in MCT): 73%
Mean survival days (L-1210 leukemia [2]; 1000 mg/Kg i.p. in MCT): 12.1 days
ILS % over controls (L-1210 leukemia [2]; 2000 mg/Kg i.p. in MCT): 79%
Mean survival days (L-1210 leukemia [2]; 2000 mg/Kg i.p. in MCT): 12.5 days
ILS % over controls (L-1210 leukemia [2]; 4000 mg/Kg i.p. in MCT): 93%
Mean survival days (L-1210 leukemia [2]; 4000 mg/Kg i.p. in MCT): 13.5 days
availability (L-1210 leukemia [2]; compared with 5-FU): higher than that of 5-FU
ratio of dose (corresponding ILS) to LD50, compared with 5-FU (L-1210 leukemia [2]; compared with 5-FU): smaller than that of 5-FU
effectiveness (L-1210 leukemia [2]; dose of about 1/8 LD50): effective
Mean survival days (L-1210 leukemia [3]; 1000 mg/Kg i.p. in MCT, 0 days before tumor implantation): 11.6 days
Mean survival days (L-1210 leukemia [3]; 1000 mg/Kg i.p. in MCT, 1 day before tumor implantation): 13.0 days
Mean survival days (L-1210 leukemia [3]; 1000 mg/Kg i.p. in MCT, 2 days before tumor implantation): 16.4 days
Mean survival days (L-1210 leukemia [3]; 1000 mg/Kg i.p. in MCT, 3 days before tumor implantation): 11.8 days
Mean survival days (L-1210 leukemia [3]; 1000 mg/Kg i.p. in MCT, 4 days before tumor implantation): 11.2 days
Mean survival days (L-1210 leukemia [3]; 1000 mg/Kg i.p. in MCT, 6 days before tumor implantation): 13.5 days
duration of antitumor effects (L-1210 leukemia [3]; from Table 6): 6 days
survival effects (L-1210 leukemia [3]; same day of implantation, or 1-6 days prior to the implantation): exhibits survival effects
Tumor growth (TPCV : T/C %) (Sarcoma-180 (S-180) [6]; 62 mg/Kg): 77.5%
Tumor growth (TPCV : T/C %) (Sarcoma-180 (S-180) [6]; 125 mg/Kg): 64.7%
Tumor growth (TPCV : T/C %) (Sarcoma-180 (S-180) [6]; 250 mg/Kg): 30.4%
Tumor growth (TPCV : T/C %) (Sarcoma-180 (S-180) [6]; 500 mg/Kg): 3.3%
Tumor growth (TPCV : T/C %) (Sarcoma-180 (S-180) [6]; 1000 mg/Kg): 0%
Tumor growth (TPCV : T/C %) (Sarcoma-180 (S-180) [6]; 2000 mg/Kg): 0%
Tumor growth (TPCV : T/C %) (Sarcoma-180 (S-180) [6]; 4000 mg/Kg): 0%
ED50 (Sarcoma-180 (S-180) [6]): ~170 mg/kg
safety index (LD50 /ED50) (Sarcoma-180 (S-180) [6]): more than 24
toxicity as an antitumor agent (Sarcoma-180 (S-180) [6]; compared with 5-FU): less toxic
